Assay [1] has as its system CpomOR3. The assay is described as follows: Single sensillum recordings, CpomOR3 expressed in Drosophila ab3A OSNs. In kind it is cell-based, Cydia pomonella. As to conditions: dose loaded in the stimulus cartridge. An excerpt: To perform heterologous expression in D. melanogaster OSNs, CpomORs were amplified using primers in Table 2 and purified PCR products were cloned into the PCR8/GW/TOPO plasmid (Invitrogen) following the recommended protocol. Cassettes with inserts were then transferred from their PCR8/GW/TOPO plasmids to the destination vector (pUASg-HA.attB, constructed by E. Furger and J. Bischof, kindly provided by the Basler group, Zürich), using the Gateway LR Clonase II kit (Invitrogen). The integrity and orientation of inserts was confirmed by sequencing (Sanger sequencer, 3730xl). […]
CpomOR1 and CpomOR6a expressed in at1 OSNs, and CpomOR3 expressed in ab3A OSNs, were tested through single sensillum recordings (SSR). […] The reference electrode was manually inserted in the right eye of the fly, while the recording electrode was manoeuvred with a DC-3K micromanipulator equipped with a PM-10 piezo translator (Märzhäuser Wetzler GmbH, Wetzler, Germany) and inserted at the base of the determined sensilla. Signals coming from the olfactory sensory neurons were amplified 10 times with a probe (INR-02, Syntech, Hilversum, the Netherlands), digitally converted through an IDAC-4-USB (Syntech) interface, and visualized and analysed with the software Autospike v. […]

The test system of assay [2] is CpomOR1. The experiment in a line: Single sensillum recordings, CpomOR1 expressed in Drosophila at1 OSNs. It counts as cell-based, Cydia pomonella. As to conditions: 10 μg per stimulus. An excerpt:
(§1) To perform heterologous expression in D. melanogaster OSNs, CpomORs were amplified using primers in Table 2 and purified PCR products were cloned into the PCR8/GW/TOPO plasmid (Invitrogen) following the recommended protocol. Cassettes with inserts were then transferred from their PCR8/GW/TOPO plasmids to the destination vector (pUASg-HA.attB, constructed by E. Furger and J. Bischof, kindly provided by the Basler group, Zürich), using the Gateway LR Clonase II kit (Invitrogen). The integrity and orientation of inserts was confirmed by sequencing (Sanger sequencer, 3730xl). Transformant UAS-CpomOR3 and UAS-CpomOR1 lines were generated by Best Gene (Chino Hills, CA, USA), using the PhiC31 integrase system, while the transformant UAS-CpomOR6a line was generated in our labs. Briefly, recombinant pUASg-HA.attB-CpomOR plasmids were injected into embryos of a D. melanogaster line containing an attP insertion site within the third chromosome (genotype y1 M{vas-int.Dm}ZH-2A w*; M{3xP3-RFP.attP}ZH-86Fb), leading to non-random integration. To drive expression of CpomORs in at1 OSNs in place of the endogenous receptor Or67d, transformant UAS-CpomOR lines were crossed to the knock-in Or67d^GAL4 line (kindly provided by Barry Dickson) to generate double homozygous lines w^+;UAS-CpomOR; Or67d^GAL4. Additionally, to drive expression of CpomOR3 in ab3A OSNs, the UAS-CpomOR3 line was crossed to the Δhalo;Or22a-Gal4 mutant line[20][57]. To verify insertion of UAS-CpomORs constructs into the genome, gDNA was extracted and used as template in PCR with primers for the full ORF of CpomORs (Table 2).
(§2) CpomOR1 and CpomOR6a expressed in at1 OSNs, and CpomOR3 expressed in ab3A OSNs, were tested through single sensillum recordings (SSR). Three to 8-day-old flies were immobilized in 100 μL pipette tips with only the top half of the head protruding. The left antenna of each insect was gently pushed with a glass capillary against a double-sided adhesive tape placed on a piece of glass. This piece of glass and the pipette tip were fixed with dental wax on a microscope slide. Electrolytically sharpened tungsten electrodes (Harvard Apparatus Ltd, Edenbridge, United Kingdom) were used to penetrate the insect´s body. The reference electrode was manually inserted in the right eye of the fly, while the recording electrode was manoeuvred with a DC-3K micromanipulator equipped with a PM-10 piezo translator (Märzhäuser Wetzler GmbH, Wetzler, Germany) and inserted at the base of the determined sensilla. Signals coming from the olfactory sensory neurons were amplified 10 times with a probe (INR-02, Syntech, Hilversum, the Netherlands), digitally converted through an IDAC-4-USB (Syntech) interface, and visualized and analysed with the software Autospike v. 3.4 (Syntech). A constant flow of 0.65 m/s of humidified air (charcoal-filtered) was delivered through a glass tube to the antenna. The panel of odorants was given to the insect by inserting pipettes containing a piece of filter paper with the correspondent stimulus in a lateral hole of the glass tube and puffing a flow of 2.5 mL of air during 0.5 s through the pipette. For CpomOR1 and CpomOR6a the panel of odorants was prepared by applying 10 μL of a solution of 1.0 μg/μL of the compounds in Supplementary Dataset S2 and Supplementary Dataset S3, for a total amount of 10 μg per stimulus. In the case of CpomOR3, a similar dilution process was used for the dose response experiments of ethyl-(E,Z)-2,4-decadienoate and methyl-(E,Z)-2,4-decadienoate, as well for dose response of experiments of codlemone acetate in CpomOR6a. Compounds were diluted from concentrations ranging from 0.01 ng/μL to 10 μg/μL in decadic steps, allowing reaching concentrations from 100 pg to 100 μg per stimulus when 10 μL of the dilution was applied in the piece of filter paper. […]

For assay [3], the system named is CpomOR6a. The experiment in a line: Single sensillum recordings, CpomOR6a expressed in Drosophila at1 OSNs. It counts as cell-based, Cydia pomonella. To be noted: 10 μg per stimulus.
Description: as §1, §2

For assay [4], the target named is T1, CpomOrco + OR3 (Cydia pomonella, UniProt H9A5M3).
T1 sequence (H9A5M3 1-426): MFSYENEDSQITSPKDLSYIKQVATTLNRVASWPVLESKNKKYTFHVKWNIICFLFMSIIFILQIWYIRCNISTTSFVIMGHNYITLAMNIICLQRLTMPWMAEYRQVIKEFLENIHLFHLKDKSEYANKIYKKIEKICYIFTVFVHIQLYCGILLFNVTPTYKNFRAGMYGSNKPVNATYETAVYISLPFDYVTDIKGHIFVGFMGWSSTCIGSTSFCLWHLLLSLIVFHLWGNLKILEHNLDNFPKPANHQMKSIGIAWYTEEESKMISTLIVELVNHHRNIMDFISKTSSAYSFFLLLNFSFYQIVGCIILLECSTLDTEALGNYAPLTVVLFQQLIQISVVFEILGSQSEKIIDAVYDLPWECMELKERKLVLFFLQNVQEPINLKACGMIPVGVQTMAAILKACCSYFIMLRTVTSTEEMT
T1 sequence (H9A5M2 1-473 partner): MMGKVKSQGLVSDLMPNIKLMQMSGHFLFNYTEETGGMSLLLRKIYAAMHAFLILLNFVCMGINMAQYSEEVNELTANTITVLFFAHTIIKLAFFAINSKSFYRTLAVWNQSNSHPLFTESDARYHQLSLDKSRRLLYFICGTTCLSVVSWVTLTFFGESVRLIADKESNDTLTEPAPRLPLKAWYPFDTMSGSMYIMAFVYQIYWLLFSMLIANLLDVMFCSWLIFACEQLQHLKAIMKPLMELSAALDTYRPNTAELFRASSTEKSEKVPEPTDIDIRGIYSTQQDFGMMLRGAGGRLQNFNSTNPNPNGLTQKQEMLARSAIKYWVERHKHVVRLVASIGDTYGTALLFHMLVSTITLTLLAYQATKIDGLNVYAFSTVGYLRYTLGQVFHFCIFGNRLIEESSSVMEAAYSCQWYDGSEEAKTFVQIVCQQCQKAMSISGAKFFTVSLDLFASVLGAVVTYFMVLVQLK
The experiment in a line: Calcium imaging of HEK293T cells expressing CpomOrco + OR3. It counts as cell-based. As to conditions: for amplitude of the calcium response (mean of the maximum response ± SEM): 500 μM, n = 151; for EC50: calcium response normalized to 250 μM VUAA3.
Description: HEK293T cells were grown in HEK cell media [Dulbecco’s modified Eagle’s medium containing 10% fetal bovine serum (MP Biomedicals, Solon, OH, USA), 2.0 mM L-glutamine, and 100 μg/mL Penicillin/Streptomycin (Invitrogen)] at 37 °C and 5% CO2. To test transient expression of CpomORs for calcium imaging or patch-clamp recording experiments, 35-mm petri dishes containing semi-confluent HEK293T cells were transiently transfected. To transfect cells with CpomOrco, we used 1.0 μg of pcDNA5/TO/CpomOrco DNA. In order to promote expression of the OR[51], we used double aliquots for pcDNA5/TO/CpomOR DNAs (2.0 μg), combined with 1.0 μg of pcDNA5/TO/CpomOrco for co-transfections (CpomOrco + ORs). […] In order to report candidate OR-expressing cells, expression of both fluorescent reporter genes was under the regulation of the same promoter for CpomOR genes (CMV). Transfection DNAs were dissolved in 100 μL sterile DMEM, mixed with 3.0 μL Calfectin (SignaGen, Rockville, MD, USA) following the recommended protocol.
Transfections were conducted overnight. HEK cell media was replaced with 1.0 mL fresh media to incubate cells at 37 °C for up to 6 h, at which point part of the cell culture was spread in the middle of a 35-mm plate as individual cells or small clusters. After 12 h of incubation at 37 °C and 5% CO2, cells were rinsed at the sides with 2.0 mL fresh HEK media. Cells were allowed to recover for at least 1 h prior to calcium imaging.
After incubation, the buffer was removed and cells were rinsed with 4.0 mL fresh HEK Ca^++ Ringer (mM: 140 NaCl, 2.0 CaCl2, 10 HEPES, pH 7.5), and placed on the stage of an inverted microscope (Olympus IX-71, Olympus Corp., Tokyo, Japan) equipped with a cooled CCD camera (ORCA R2, Hamamatsu, Hamamatsu City, Japan). Cells were continuously superfused with Ca^++ Ringer using two gravity fed perfusion contours. The stimulating contour washing the cells (~250 μL/min) was switched rapidly to the stimulus contour using a multi-channel rapid solution changer (RSC-160, Bio-Logic, Claix, France) under the software control of Clampex 9 (Molecular Devices, Sunnyvale, CA, USA).
Fluorescence imaging was performed using Imaging Workbench 6 software (INDEC BioSystems, Santa Clara, CA, USA). Each cell was assigned a region of interest (ROI) and changes in fluorescence intensity within each ROI were measured and expressed as the fractional change in fluorescence intensity (dF) or in some cases as dF/F0 where F0 is the basal fluorescence level before agonist application. […] Continuous traces of multiple responses were compensated for slow drift of the baseline fluorescence when necessary. All recordings were performed at room temperature (22–25 °C).
Compounds were diluted in either DMSO or ethanol (Sigma Aldrich) depending on their solubility properties. […]

The test system of assay [5] is CpomOrco + OR complexes. The assay is described as follows: Calcium imaging of HEK293T cells expressing heteromeric CpomOrco + OR complexes. It counts as cell-based, Cydia pomonella. As for the experimental part: HEK293T cells were grown in HEK cell media [Dulbecco’s modified Eagle’s medium containing 10% fetal bovine serum (MP Biomedicals, Solon, OH, USA), 2.0 mM L-glutamine, and 100 μg/mL Penicillin/Streptomycin (Invitrogen)] at 37 °C and 5% CO2. To test transient expression of CpomORs for calcium imaging or patch-clamp recording experiments, 35-mm petri dishes containing semi-confluent HEK293T cells were transiently transfected. To transfect cells with CpomOrco, we used 1.0 μg of pcDNA5/TO/CpomOrco DNA. In order to promote expression of the OR[51], we used double aliquots for pcDNA5/TO/CpomOR DNAs (2.0 μg), combined with 1.0 μg of pcDNA5/TO/CpomOrco for co-transfections (CpomOrco + ORs). To report expression for calcium imaging experiments, 1.0 μg of a separate plasmid DNA [pEBFP2-Nuc, a gift from Robert Campbell (Addgene plasmid # 14893[52])] carrying the coding sequence for a blue fluorescent protein (BFP) was used. In patch-clamp recordings, 1.0 μg of a separate plasmid DNA (pXOOM, Clontech) carrying the coding sequence for a green fluorescent protein (GFP) was used to report expression. In order to report candidate OR-expressing cells, expression of both fluorescent reporter genes was under the regulation of the same promoter for CpomOR genes (CMV). Transfection DNAs were dissolved in 100 μL sterile DMEM, mixed with 3.0 μL Calfectin (SignaGen, Rockville, MD, USA) following the recommended protocol. To estimate transfection efficiency, a parallel transfection was conducted using the positive control vector pcDNA5/TO/LACZ (Invitrogen) and staining with 0.1% XGal[53]. […]
(§3) Fluorescence imaging was performed using Imaging Workbench 6 software (INDEC BioSystems, Santa Clara, CA, USA). Each cell was assigned a region of interest (ROI) and changes in fluorescence intensity within each ROI were measured and expressed as the fractional change in fluorescence intensity (dF) or in some cases as dF/F0 where F0 is the basal fluorescence level before agonist application. […] Continuous traces of multiple responses were compensated for slow drift of the baseline fluorescence when necessary. […]

The target of assay [6] is CpomOrco (Cydia pomonella, UniProt H9A5M2). The experiment in a line: Calcium imaging of HEK293T cells expressing homomeric CpomOrco. In kind it is cell-based. To be noted: peak amplitudes normalized to response at 1000 μM agonist, read-out: [A]1/2 half-effective concentration of agonist, calcium response. On the procedure:
HEK293T cells were grown in HEK cell media [Dulbecco’s modified Eagle’s medium containing 10% fetal bovine serum (MP Biomedicals, Solon, OH, USA), 2.0 mM L-glutamine, and 100 μg/mL Penicillin/Streptomycin (Invitrogen)] at 37 °C and 5% CO2. To test transient expression of CpomORs for calcium imaging or patch-clamp recording experiments, 35-mm petri dishes containing semi-confluent HEK293T cells were transiently transfected. To transfect cells with CpomOrco, we used 1.0 μg of pcDNA5/TO/CpomOrco DNA. In order to promote expression of the OR[51], we used double aliquots for pcDNA5/TO/CpomOR DNAs (2.0 μg), combined with 1.0 μg of pcDNA5/TO/CpomOrco for co-transfections (CpomOrco + ORs). […]
as §3

On to `CCCCC/C=C\C=C\C(=O)OCC` [(E,Z)-ED, ethyl-(E,Z)-2,4-decadienoate], for which the “minimum dose to elicit a response significantly different from the solvent” value in assay [1] worked out at 100 ng. The Spikes/s in assay [2] (replicate 1) is -2 Spikes/s; in assay [2] (replicate 2) it was 2 Spikes/s; in assay [2] (replicate 3), 2 Spikes/s; in assay [2] (replicate 4), 2 Spikes/s; in assay [2] (replicate 5), 10 Spikes/s. The Spike/s in assay [3] (replicate 1) is listed as 2 Spike/s; in assay [3] (replicate 2), -2 Spike/s; in assay [3] (replicate 3), 8 Spike/s; in assay [3] (replicate 4) it was 2 Spike/s; in assay [3] (replicate 5), -14 Spike/s; in assay [3] (replicate 6) it was 8 Spike/s. In addition, the Spike/s in assay [3] (replicate 7) is listed as 4 Spike/s; in assay [3] (replicate 8), -2 Spike/s; in assay [3] (replicate 9) it was 14 Spike/s. For the same molecule, the “amplitude of the calcium response (mean of the maximum response ± SEM)” value in assay [4] turned out to be 15.07 ± 9.48 dF. Besides, the EC50 in assay [4] stood at 454 ± 120 µM.

With `CCCCC/C=C\C=C\C(=O)OC` [(E,Z)-MD, methyl (E,Z)-2,4-decadienoate], the “minimum dose to elicit a response significantly different from the solvent” value in assay [1] is 10000 ng. Moreover, in assay [4], the “amplitude of the calcium response (mean of the maximum response ± SEM)” value is on record as 10.40 ± 5.91 dF and the EC50 is 1080 ± 113 µM.

With `CC(C)CN(C)c1nc(N)c(C(=O)N=C(N)N)nc1Cl` [MIA, 5-(N-methyl-N-isobutyl) amiloride], in assay [5] (MIA 100 μM applied extracellularly, all heteromeric complexes, only partially reversible), the “block of the VUAA3 activated calcium signal” value is “almost completely blocked”.

As for `CCc1ccc(NC(=O)CSc2nnc(-c3cccnc3)n2CC)cc1` [VUAA1, acetamide,N-(4-ethylphenyl)-2-[[4-ethyl-5-(3-pyridinyl)-4H-1,2,4-triazol-3-yl]thio]-], the EC50 was around 150 µM in assay [5] (heteromeric complexes, peak amplitudes normalized to response at 1000 μM agonist, read-out: [A]1/2 half-effective concentration of agonist, calcium response) and around 520 µM in assay [6].
